Reference: patent US20230398130A1, “METHODS AND COMPOSITIONS FOR DIFFERENTIATING STEM CELLS” (Massachusetts Institute of Technology, priority 2020, published 2023)

Legend:
ISC-enriched organoids [1] = assay: Primary screen, 384-well 2.5-D organoid differentiation (ENR+CD, 6 days): basal lysozyme secretion (LYZ.NS); assay type: cell-based, murine; settings: for Dose.FC.LYZ.NS: FC vs plate median; for SSMD.LYZ.NS: strictly standardized mean difference
Excerpt: (§1) High-throughput screening.

ISC-enriched organoids [2] = assay: Primary screen, 384-well 2.5-D organoid differentiation (ENR+CD, 6 days): carbachol-induced lysozyme secretion (LYZ.S); assay type: cell-based, murine; settings: for Dose.FC.LYZ.S: FC vs plate median; for Z.LYZ.S: standard z score; for SSMD.LYZ.S: strictly standardized mean difference
Excerpt: as §1

ISC-enriched organoids [3] = assay: Primary screen, 384-well 2.5-D organoid differentiation (ENR+CD, 6 days, Target Selective Inhibitor Library, vs whole-plate median): ATP (CellTiter-Glo 3D, CTG); settings: for Dose.FC.CTG: FC vs plate median; for SSMD.CTG: strictly standardized mean difference
[4] = Dose 0.08 uM, standard z score of FC
[5] = Dose 0.40 uM, standard z score of FC
[6] = Dose 2.00 uM, standard z score of FC
[7] = Dose 10.00 uM, standard z score of FC
[8] = Dose 0.08 uM, primary screen, standard z score
[9] = Dose 0.40 uM, primary screen, standard z score
[10] = Dose 2.00 uM, primary screen, standard z score
[11] = Dose 10.00 uM, primary screen, standard z score
[12] = primary screen, 3rd of the 4 dose lines of the treatment (dose not given)
[13] = primary screen, 4th of the 4 dose lines of the treatment (dose not given)

`COc1cccc(C=NCCN=Cc2cccc(OC)c2[O-])c1[O-].[Cl-].[Mn+3]` [EUK 134] showed a Dose.FC.LYZ.NS (ISC-enriched organoids [1]; Dose 0.08 uM, ENR+CD, 6 days) of 0.068 log 2 fold change, a Z.LYZ.NS (ISC-enriched organoids [1]; [4]) of 0.594 and a Dose.FC.LYZ.NS (ISC-enriched organoids [1]; Dose 0.40 uM, ENR+CD, 6 days) of 0.003 log 2 fold change. It also gave a Z.LYZ.NS (ISC-enriched organoids [1]; [5]) of 0.026, a Dose.FC.LYZ.NS (ISC-enriched organoids [1]; Dose 2.00 uM, ENR+CD, 6 days) of 0.028 log 2 fold change and a Z.LYZ.NS (ISC-enriched organoids [1]; [6]) of 0.247. It also gave a Dose.FC.LYZ.NS (ISC-enriched organoids [1]; Dose 10.00 uM, ENR+CD, 6 days) of −0.085 log 2 fold change, a Z.LYZ.NS (ISC-enriched organoids [1]; [7]) of −0.741 and a Dose.FC.LYZ.S (ISC-enriched organoids [2]; Dose 0.08 uM, ENR+CD, 6 days) of 0.025 log 2 fold change. It also gave a Dose.FC.LYZ.S (ISC-enriched organoids [2]; Dose 0.40 uM, ENR+CD, 6 days) of 0.057 log 2 fold change, a Dose.FC.LYZ.S (ISC-enriched organoids [2]; Dose 2.00 uM, ENR+CD, 6 days) of −0.034 log 2 fold change and a Dose.FC.LYZ.S (ISC-enriched organoids [2]; Dose 10.00 uM, ENR+CD, 6 days) of −0.132 log 2 fold change. For the same compound, the Dose.FC.CTG (ISC-enriched organoids [3]; Dose 0.08 uM, ENR+CD, 6 days) was −0.015 log 2 fold change, the Z.CTG (ISC-enriched organoids [3]; [4]) was −0.035 and the Dose.FC.CTG (ISC-enriched organoids [3]; Dose 0.40 uM, ENR+CD, 6 days) was −0.162 log 2 fold change. It also gave a Z.CTG (ISC-enriched organoids [3]; [5]) of −0.387, a Dose.FC.CTG (ISC-enriched organoids [3]; Dose 2.00 uM, ENR+CD, 6 days) of 0.091 log 2 fold change and a Z.CTG (ISC-enriched organoids [3]; [6]) of 0.217. The Dose.FC.CTG (ISC-enriched organoids [3]; Dose 10.00 uM, ENR+CD, 6 days) was −0.024 log 2 fold change and the Z.CTG (ISC-enriched organoids [3]; [7]) was −0.057.
Compound `O=C(NOCC1CC1)c1ccc(F)c(F)c1Nc1ccc(I)cc1Cl` [PD184352 (CI-1040)] has a Dose.FC.LYZ.NS (ISC-enriched organoids [1]; Dose 0.08 uM, primary screen) of −0.019 log 2 fold change, a Z.LYZ.NS (ISC-enriched organoids [1]; [4]) of −0.162 and a Dose.FC.LYZ.NS (ISC-enriched organoids [1]; Dose 0.40 uM, primary screen) of −0.053 log 2 fold change. The Z.LYZ.NS (ISC-enriched organoids [1]; [5]) was −0.458, the Dose.FC.LYZ.NS (ISC-enriched organoids [1]; Dose 2.00 uM, primary screen) was −0.135 log 2 fold change and the Z.LYZ.NS (ISC-enriched organoids [1]; [6]) was −1.176. The Dose.FC.LYZ.NS (ISC-enriched organoids [1]; Dose 10.00 uM, primary screen) was −0.116 log 2 fold change, the Z.LYZ.NS (ISC-enriched organoids [1]; [7]) was −1.011 and the Dose.FC.LYZ.S (ISC-enriched organoids [2]; Dose 0.08 uM, primary screen) was −0.019 log 2 fold change. The Dose.FC.LYZ.S (ISC-enriched organoids [2]; Dose 0.40 uM, primary screen) was −0.047 log 2 fold change, the Dose.FC.LYZ.S (ISC-enriched organoids [2]; Dose 2.00 uM, primary screen) was −0.178 log 2 fold change and the Dose.FC.LYZ.S (ISC-enriched organoids [2]; Dose 10.00 uM, primary screen) was −0.239 log 2 fold change. The Dose.FC.CTG (ISC-enriched organoids [3]; Dose 0.08 uM, primary screen) was 0.366 log 2 fold change, the Z.CTG (ISC-enriched organoids [3]; [4]) was 0.874 and the Dose.FC.CTG (ISC-enriched organoids [3]; Dose 0.40 uM, primary screen) was 0.261 log 2 fold change. The Z.CTG (ISC-enriched organoids [3]; [5]) was 0.624, the Dose.FC.CTG (ISC-enriched organoids [3]; Dose 2.00 uM, primary screen) was −0.212 log 2 fold change and the Z.CTG (ISC-enriched organoids [3]; [6]) was −0.506. The Dose.FC.CTG (ISC-enriched organoids [3]; Dose 10.00 uM, primary screen) was −0.796 log 2 fold change and the Z.CTG (ISC-enriched organoids [3]; [7]) was −1.901.
`CC(C)(C)c1nc(-c2cccc(NS(=O)(=O)c3c(F)cccc3F)c2F)c(-c2ccnc(N)n2)s1` [Dabrafenib (GSK2118436)] showed a Dose.FC.LYZ.NS (ISC-enriched organoids [1]; Dose 0.08 uM, ENR+CD, 6 days) of 0.095 log 2 fold change, a Z.LYZ.NS (ISC-enriched organoids [1]; [4]) of 0.830 and a Dose.FC.LYZ.NS (ISC-enriched organoids [1]; Dose 0.40 uM, ENR+CD, 6 days) of 0.049 log 2 fold change. It also gave a Z.LYZ.NS (ISC-enriched organoids [1]; [5]) of 0.427, a Dose.FC.LYZ.NS (ISC-enriched organoids [1]; Dose 2.00 uM, ENR+CD, 6 days) of −0.001 log 2 fold change and a Z.LYZ.NS (ISC-enriched organoids [1]; [6]) of −0.006. The Dose.FC.LYZ.NS (ISC-enriched organoids [1]; Dose 10.00 uM, ENR+CD, 6 days) was −0.250 log 2 fold change, the Z.LYZ.NS (ISC-enriched organoids [1]; [7]) was −2.178 and the Dose.FC.LYZ.S (ISC-enriched organoids [2]; Dose 0.08 uM, ENR+CD, 6 days) was 0.236 log 2 fold change. For the same compound, the Dose.FC.LYZ.S (ISC-enriched organoids [2]; Dose 0.40 uM, ENR+CD, 6 days) was 0.103 log 2 fold change, the Dose.FC.LYZ.S (ISC-enriched organoids [2]; Dose 2.00 uM, ENR+CD, 6 days) was 0.019 log 2 fold change and the Dose.FC.LYZ.S (ISC-enriched organoids [2]; Dose 10.00 uM, ENR+CD, 6 days) was −0.384 log 2 fold change. The Dose.FC.CTG (ISC-enriched organoids [3]; Dose 0.08 uM, ENR+CD, 6 days) was −0.134 log 2 fold change, the Z.CTG (ISC-enriched organoids [3]; [4]) was −0.320 and the Dose.FC.CTG (ISC-enriched organoids [3]; Dose 0.40 uM, ENR+CD, 6 days) was 0.011 log 2 fold change. The Z.CTG (ISC-enriched organoids [3]; [5]) was 0.026, the Dose.FC.CTG (ISC-enriched organoids [3]; Dose 2.00 uM, ENR+CD, 6 days) was −0.279 log 2 fold change and the Z.CTG (ISC-enriched organoids [3]; [6]) was −0.667. For the same compound, the Dose.FC.CTG (ISC-enriched organoids [3]; Dose 10.00 uM, ENR+CD, 6 days) was −0.800 log 2 fold change and the Z.CTG (ISC-enriched organoids [3]; [7]) was −1.911.
Work on `Cn1cc(/C=C2\C(=O)Nc3cccnc32)c2ccccc21` [GW441756] yielded a Dose.FC.LYZ.NS (ISC-enriched organoids [1]; Dose 0.08 uM, primary screen) of 0.046 log 2 fold change, a Z.LYZ.NS (ISC-enriched organoids [1]; [8]) of 0.399 and a Dose.FC.LYZ.NS (ISC-enriched organoids [1]; Dose 0.40 uM, primary screen) of 0.061 log 2 fold change. It also gave a Z.LYZ.NS (ISC-enriched organoids [1]; [9]) of 0.529, a Dose.FC.LYZ.NS (ISC-enriched organoids [1]; Dose 2.00 uM, primary screen) of 0.117 log 2 fold change and a Z.LYZ.NS (ISC-enriched organoids [1]; [10]) of 1.023. It also gave a Dose.FC.LYZ.NS (ISC-enriched organoids [1]; Dose 10.00 uM, primary screen) of 0.088 log 2 fold change, a Z.LYZ.NS (ISC-enriched organoids [1]; [11]) of 0.763 and an SSMD.LYZ.NS (ISC-enriched organoids [1]; [12]) of 1.215. It also gave an SSMD.LYZ.NS (ISC-enriched organoids [1]; [13]) of 0.357, a Dose.FC.LYZ.S (ISC-enriched organoids [2]; Dose 0.08 uM, primary screen) of 0.075 log 2 fold change and a Dose.FC.LYZ.S (ISC-enriched organoids [2]; Dose 0.40 uM, primary screen) of 0.196 log 2 fold change. The Dose.FC.LYZ.S (ISC-enriched organoids [2]; Dose 2.00 uM, primary screen) was 0.125 log 2 fold change, the Dose.FC.LYZ.S (ISC-enriched organoids [2]; Dose 10.00 uM, primary screen) was 0.071 log 2 fold change and the Z.LYZ.S (ISC-enriched organoids [2]; [12]) was 0.806. The Z.LYZ.S (ISC-enriched organoids [2]; [13]) was 0.458, the SSMD.LYZ.S (ISC-enriched organoids [2]; [12]) was 0.911 and the SSMD.LYZ.S (ISC-enriched organoids [2]; [13]) was 0.449. It also gave a Dose.FC.CTG (ISC-enriched organoids [3]; Dose 0.08 uM, primary screen) of 0.048 log 2 fold change, a Z.CTG (ISC-enriched organoids [3]; [8]) of 0.114 and a Dose.FC.CTG (ISC-enriched organoids [3]; Dose 0.40 uM, primary screen) of −0.105 log 2 fold change. It also gave a Z.CTG (ISC-enriched organoids [3]; [9]) of −0.252, a Dose.FC.CTG (ISC-enriched organoids [3]; Dose 2.00 uM, primary screen) of 0.152 log 2 fold change and a Z.CTG (ISC-enriched organoids [3]; [10]) of 0.364. For the same compound, the Dose.FC.CTG (ISC-enriched organoids [3]; Dose 10.00 uM, primary screen) was −0.113 log 2 fold change, the Z.CTG (ISC-enriched organoids [3]; [11]) was −0.270 and the SSMD.CTG (ISC-enriched organoids [3]; [12]) was 0.468. The SSMD.CTG (ISC-enriched organoids [3]; [13]) was −0.350.
